Read-outs that look alike come from different tables or passages of the source.
What was measured:
[1] = tested on: estrogen receptor (ER); assay type: cell-based, human
[2] = tested on: TK6 cells; set-up: method as in Takakura et al. [2014]; details: concentrations below 12.5 µM, 3 h of treatment, with or without human and rat liver S9; ref Takakura et al. [2014]; cited from earlier work
[3] = tested on: estrogen receptor (ER)
[4] = target: T1, human androgen receptor (Homo sapiens, UniProt P10275); assay type: cell-based
T1 construct: host or cells: Chinese hamster ovary (CHO) cells, AR-EcoScreen GR KO M1, stably transfected, glucocorticoid receptor knocked out
T1 sequence (P10275 1-920): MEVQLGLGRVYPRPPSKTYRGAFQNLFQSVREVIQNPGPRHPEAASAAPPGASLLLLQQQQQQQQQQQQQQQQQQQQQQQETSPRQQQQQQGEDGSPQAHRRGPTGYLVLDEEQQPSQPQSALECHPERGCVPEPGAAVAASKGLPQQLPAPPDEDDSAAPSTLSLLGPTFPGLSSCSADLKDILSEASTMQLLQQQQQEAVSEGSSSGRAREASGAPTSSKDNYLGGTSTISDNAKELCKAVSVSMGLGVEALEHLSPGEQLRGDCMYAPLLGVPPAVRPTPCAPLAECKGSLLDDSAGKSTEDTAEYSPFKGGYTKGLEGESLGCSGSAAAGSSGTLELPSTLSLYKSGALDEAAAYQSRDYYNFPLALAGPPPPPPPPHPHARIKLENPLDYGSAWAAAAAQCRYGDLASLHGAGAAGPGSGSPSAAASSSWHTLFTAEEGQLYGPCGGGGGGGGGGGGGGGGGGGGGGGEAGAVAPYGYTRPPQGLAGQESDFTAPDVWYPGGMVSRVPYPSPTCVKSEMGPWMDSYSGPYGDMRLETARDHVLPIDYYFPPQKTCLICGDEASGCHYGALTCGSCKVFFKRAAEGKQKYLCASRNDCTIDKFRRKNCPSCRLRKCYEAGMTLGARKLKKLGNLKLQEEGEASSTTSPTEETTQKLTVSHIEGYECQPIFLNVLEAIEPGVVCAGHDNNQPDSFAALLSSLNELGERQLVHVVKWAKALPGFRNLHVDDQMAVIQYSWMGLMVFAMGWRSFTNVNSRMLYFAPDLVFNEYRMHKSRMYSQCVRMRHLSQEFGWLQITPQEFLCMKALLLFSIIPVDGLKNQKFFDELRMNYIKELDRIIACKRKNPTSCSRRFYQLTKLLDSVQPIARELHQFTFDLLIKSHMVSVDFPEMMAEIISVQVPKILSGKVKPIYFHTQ

[5] = tested on: TK6 cells; details: for Micronuclei formation (% MN) versus vehicle controls: 5 h exposure, alone, with S9 alone or S9 with cofactors, ZEN 6.25 and 12.50 µM, DON 0.78 and 1.56 µM; for Micronuclei formation (% MN) versus vehicle control: non-cytotoxic test concentrations
[6] = target: T1, human androgen receptor; assay type: cell-based; remark: listed apart in the source
[7] = set-up: method as in Drzymala et al. [2014]; details: rat liver microsomes, presence of NADPH, after 60 min; ref Drzymala et al. [2014]; cited from earlier work
[8] = tested on: AR; set-up: method as in Molina-Molina et al. [2014]; details: ref Molina-Molina et al. [2014], cited from earlier work; for AR antagonistic effect IC50: androgen-sensitive PALM cells
[9] = DON compounds, S9 + PHI + PHII cofactors, [95% CI]
[10] = DON compounds, S9 + PHII cofactors, [95% CI]
[11] = DON compounds, S9 alone, [95% CI]
[12] = DON compounds, no MAS, [95% CI]
[13] = without exogenous MAS, initial concentration-range finding trials, 24 h
[14] = DON compounds, S9 + PHI + PHII cofactors
[15] = DON compounds, S9 + PHII cofactors
[16] = 24 h continuous exposure, without MAS
[17] = ZEN compounds, S9 + PHI cofactors, [95% CI]
[18] = ZEN compounds, S9 alone, [95% CI]
[19] = ZEN compounds, no MAS, [95% CI]
[20] = ZEN compounds, S9 + PHI + PHII cofactors, [95% CI]
[21] = ZEN compounds, no MAS (S9 −, PHI −, PHII −), [95% CI]

CC1=C[C@H]2O[C@@H]3[C@H](O)C[C@](C)([C@@]2(CO)[C@H](O)C1=O)[C@]31CO1 [DON, deoxynivalenol]
ER antagonism IC30 [1, 9]: 0.37 [0.25,0.58] µM | ER antagonism IC30 [1, 10]: 0.25 [0.18,0.38] µM | ER antagonism IC30 [1, 11]: 0.75 [0.54,1.05] µM | ER antagonism IC30 [1, 12]: 0.81 [0.69,1.00] µM | ER antagonism IC30 [1, 13]: 0.91 µM | MN formations [2]: did not induce any significant MN formations | ER agonism EC10 [3, 14]: <LOD | ER agonism EC10 [3, 15]: <LOD | ER agonism EC10 [3, 11]: <LOD | ER agonism EC10 [3, 12]: <LOD | ER agonism EC10 [3, 13]: <LOD | AR antagonism IC30 [4, 14]: <LOD | AR antagonism IC30 [4, 15]: <LOD | AR antagonism IC30 ([4]; DON compounds, S9 alone): <LOD | AR antagonism IC30 ([4]; DON compounds, no MAS): <LOD | AR antagonism IC30 [4, 13]: <LOD | Micronuclei formation (% MN) versus vehicle controls [5]: neither ZEN nor DON alone or with the S9 alone or with cofactors had any statistically significant effect on % MN | Micronuclei formation (% MN) versus vehicle control [5, 16]: No statistically significant increases in % MN | AR agonism EC10 [6, 9]: 0.45 [0.39,0.52] µM | AR agonism EC10 [6, 10]: 0.38 [0.32,0.46] µM | AR agonism EC10 [6, 11]: 0.84 [0.72,0.98] µM | AR agonism EC10 [6, 12]: 0.87 [0.81,0.93] µM | AR agonism EC10 [6, 13]: 0.83 µM

C[C@]12CC[C@@H]3c4ccc(O)cc4CC[C@H]3[C@@H]1CC[C@@H]2O [E2, 17β-estradiol, reference compound]
ER agonistic activity after treatment of cells with only S9 [3]: reduction of ER agonistic activity

C[C@H]1CCCC(=O)CCC/C=C/c2cc(O)cc(O)c2C(=O)O1 [ZEN, zearalenone]
ER antagonism IC30 [1, 17]: 10.3 [8.71,11.8] µM | ER antagonism IC30 [1, 18]: 3.41 [2.40,4.68] µM | ER antagonism IC30 [1, 19]: 2.92 [2.09,3.89] µM | ER antagonism IC30 [1, 13]: 2.85 µM | ER agonism EC10 [3, 20]: 6470 pM | ER agonism EC10 [3, 17]: 984 [740,1 279] pM | ER agonism EC10 [3, 18]: 63.3 [56.2,97.2] pM | ER agonism EC10 [3, 21]: 46.5 [29.5,72.4] pM | ER agonism EC10 value range converted to a concentration range in a water sample ([3]; converted from 30–40 pM): 0.01 to 0.012 ng/mL | ER agonism EC10 converted to concentration in a water sample enriched 50 times ([3]; water sample enriched 50 times): approximately 0.2 ng/L | ER agonism EC10 [3, 13]: 30 to 40 pM | ER agonism EC10 ([3]; without exogenous MAS, initial concentration-range finding trials, 24 h, listed as Zearalenone (ZEN)): 34.07 pM | Decrease of substrate concentration to (% remaining) [7]: approximately 40% | AR antagonism IC30 [4, 20]: 18.0 [13.8,23.4] µM | AR antagonism IC30 [4, 17]: 7.33 [6.31,8.13] µM | AR antagonism IC30 [4, 18]: 2.14 [1.82,2.45] µM | AR antagonism IC30 [4, 19]: 2.37 [1.95,2.75] µM | AR antagonism IC30 [4, 13]: 3.30 µM | Micronuclei formation (% MN) versus vehicle controls [5]: neither ZEN nor DON alone or with the S9 alone or with cofactors had any statistically significant effect on % MN | Micronuclei formation (% MN) versus vehicle control [5, 16]: statistically significant increase in % MN | Test concentration with statistically significant increase in % MN (highest non-cytotoxic test concentration) ([5]; 24 h continuous exposure, without MAS, p-value of 0.0007): 12.5 µM | Androgenic activities ([8]; PALM cells, 40 h of exposure, concentrations up to 10 µM): no androgenic activities were detected | AR antagonistic effect IC50 [8]: micromolar range | AR agonism EC10 ([6]; ZEN compounds, S9 + PHI + PHII cofactors): <LOD | AR agonism EC10 ([6]; ZEN compounds, S9 + PHI cofactors): <LOD | AR agonism EC10 ([6]; ZEN compounds, S9 alone): <LOD | AR agonism EC10 ([6]; ZEN compounds, no MAS): <LOD | AR agonism EC10 [6, 13]: <LOD

C[C@H]1CCC[C@H](O)CCC/C=C/c2cc(O)cc(O)c2C(=O)O1 [α-ZEL, α-Zearalenol]
ER antagonism IC30 [1, 20]: 5.10 [2.88,8.13] µM | ER antagonism IC30 [1, 17]: 2.42 [1.35,3.63] µM | ER antagonism IC30 [1, 18]: 1.75 [0.69,3.02] µM | ER antagonism IC30 [1, 19]: 1.03 [0.33,1.78] µM | ER antagonism IC30 [1, 13]: 1.39 µM | Estrogenic potency relative to ZEN (times more potent) [3]: ~10 times | ER agonism EC10 [3, 17]: 49.3 [30.2,75.9] pM | ER agonism EC10 [3, 18]: 4.24 [2.82,6.31] pM | ER agonism EC10 [3, 21]: 3.70 [2.51,5.37] pM | ER agonism EC10 [3, 13]: 3.59 pM | AR antagonistic effect IC50 [8]: micromolar range | AR agonism EC10 [6]: <LOD
